Key:
[1] = test system: HCV-Jc-1 tagged to a yellow fluorescent protein; settings: after 48 h of infection; Liu et al., Antimicrob. Agents Chemother. 2015; cited from earlier work
[2] = Bi-directional Caco-2 cell permeability assay; settings: human, Caco-2, pH 7.4
Method: (§1) The bi-directional Caco-2 cell permeability assay was performed as described as follows: Caco-2 cells (ECACC) were seeded onto 24-well Transwell plates at 2×10^5 cells per well and used in confluent monolayers after a 21 day culture at 37° C. under 5% CO2. Test and control compounds (propranolol, vinblastine), prepared in DMSO, were added (10 μM, 0.1% DMSO final, n=2) to donor compartments of the Transwell plate assembly in assay buffer (Hanks balanced salt solution supplemented with 25 mM HEPES, adjusted to pH 7.4) for both apical to basolateral (A>B) and basolateral to apical (B>A) measurements. Incubations were performed at 37° C., with samples removed from both donor and acceptor chambers at T=0 and 1 hour and compound analysed by mass spectrometry (LC-MS/MS) including an analytical internal standard.
(§2) Apparent permeability (Papp) values were determined from the relationship: Papp=[CompoundAcceptor T=end]×VAcceptor/([CompoundDonor T=0]×VDonor)/incubation time×VDonor/Area×60×10-6 cm/s
(§3) Where V is the volume of each Transwell compartment (apical 125 μL, basolateral 600 μL), and concentrations are the relative MS responses for compound (normalized to internal standard) in the donor chamber before incubation and acceptor chamber at the end of the incubation.
(§4) Area=area of cells exposed for drug transfer (0.33 cm2).
(§5) Efflux ratios (Papp B>A/Papp A>B) were calculated for each compound from the mean Papp values in each direction.
(§6) Lucifer Yellow (LY) was added to the apical buffer in all wells to assess viability of the cell layer.
(§7) Compound recovery from the wells was determined from MS responses (normalized to internal standard) in donor and acceptor chambers at the end of incubation compared to response in the donor chamber pre-incubation.

Caco-2 cells = test: Bi-directional Caco-2 cell permeability assay; settings: for permeability classification in the A>B direction: Caco-2; for efflux transporter substrate finding: efflux ratio larger than 2
Method: as §1, §2, §3, §4, §5, §6, §7

[3] = test system: HCV (Jc-1 Wild-type virus); test: Efficacy testing of Sofosbuvir and n-Propyl-Sofosbuvir in HCV-infected Huh7.5 cells, quantitative PCR of HCV RNA in supernatant; type: cell-based, Hepatitis C virus; settings: for virus reduction / Ct-value (threshold cycle) of HCV-RNA: single application 48 h post infection; for virus reduction: two days treatment, inferred from Ct 28 vs 25; for Ct-value (threshold cycle) of HCV-RNA: μM range down to lowest dose, RNA extracted two days later, SYBR Green kit, untreated control Ct around 25 (FIG. 1); for antiviral profile (reduction of viral titer): single application, 72 h, concentrations down to 9 nM, Altona HCV quantification kit (FIG. 4); for amount of viral RNA (viral load) / reduction of viral RNA: two-time application, highest concentrations; for amount of viral RNA (viral load): CE-labeled PCR HCV quantification kit, controls around 10^7 IU/ml (FIG. 7); for reduction of viral RNA: versus controls
Method: HCV histochemistry and determination of virus titers. To determine virus titers, the protocol described by Linden bach et al. (2005) is slightly modified. 1×10^4 Huh-7.5 cells or 0.7×10^4 Lunet cells were seeded per 96-well 24 h prior to infection. Six wells are infected simultaneously with the same dilution of filtered cell culture supernatants of HCV transfected or infected cells. Usually, the first dilution is a 1:10 dilution followed by 1:6 dilutions. 72 h after infection, the cells are washed once with PBS and then fixed in ice-cold methanol for 20 min at −20° C. Afterwards, the cells are washed with PBS and then permeabilized with 0.5% Triton X-100 in PBS for 5 min at RT. The first antibody detecting the HCV NSSA protein (9E10) is diluted 1:2000 in PBS and was incubated on the cells for 1 h. Then the cells are washed again three times with PBS and stained with the secondary antibody (goat a-mouse coupled to HRP, Sigma) 1:200 in PBS for 45 min at RT. To detect the HCV positive cells, the wells are first washed again three times with PBS and then the HRP activity is detected by the addition of 30 μl Carbazole substrate/96-well for 15 min at RT. Afterwards, the substrate is replaced with water and the wells were analyzed by light microscopy for positive cells. The 50% tissue culture infectious dose (TCID50) is calculated based on the methods described by Spearman and Karber. By this, the concentrations of a virus isolation needed to infect 50% of a given number of wells is determined (Spearman, 1908). qPCR of viral supernatant. Total RNA was extracted by the Altostar system according to the protocol of the manufacturer. A Power SYBR Green RNA-to-Ct 1-step kit (Applied Biosystems) is used to quantify the amount of HCV RNA. Primers specific for the 5′ UTR are 5′-TGCGGAACCGGTGAGTACA-3′ (forward) and […]. The PCR program conditions are as follows: 30 min at 48° C. for reverse transcription, 10 min at 95° C. for enzyme activation, and 40 cycles of amplification with 15 s at 95° C. for denaturation and 1 min at 60° C. for annealing and extension. Standard curve reactions are run in parallel by using serially diluted Jc1/Gluc2A plasmid ranging from 2.0×10^7 to 2.0×10^0 copies. To confirm obtained for experiment 3 (FIGS. 4 and 7), PCR was performed using the Atlona HCV-quantification kit.
Efficacy Testing of Sofosbuvir and n-Propyl-Sofosbuvir (compound I″a). Huh7.5 cells (1×10^4 per well) were seeded in a 96-well plate. The following day cells were infected with 8500 TCID50/well of HCV (Jc-1 Wild-type virus) for infection. After 48 h cells were treated with Sofosbuvir, n-Propyl-Sofosbuvir and as a negative control with the solvent used for Sofosbuvir, n-Propyl-Sofosbuvir (DMSO/EtOH) at concentrations given in the Figures. Two days or three later, supernatants were harvested and RNA was extracted by the Altostar system according to the protocol of the manufacturer. Quantitative PCR was performed using the Atlona HCV-quantification kit as recommended by the manufacturer.
In one set of experiments, Sofosbuvir and n-Propyl-Sofosbuvir were applied 48 h post infection and again 24 h later as indicated by FIG. 5.
All experiments shown represent the mean of at least two independent sets of data performed in duplicates.

In the case of CC(C)OC(=O)[C@H](C)N[P@](=O)(OC[C@H]1O[C@@H](n2ccc(=O)[nH]c2=O)[C@](C)(F)[C@@H]1O)Oc1ccccc1 [Sofosbuvir, (S)-isopropyl 2-(((S)-(((2R,3R,4R,5R)-5-(2,4-dioxo-3,4-dihydropyrimidin-1(2H)-yl)-4-fluoro-3-hydroxy-4-methyltetrahydrofuran-2-yl)methoxy)(phenoxy)phosphoryl)-amino)propanoate], the IC50 [1] is listed as > 10 µM, the Papp A→B at 1 h, 10 μM [2] is listed as 4 ×10⁻⁶ cm/s and the efflux ratio at 1 h, 10 μM [2] is listed as 4.6. For the same molecule, the “permeability classification in the A>B direction” value (Caco-2 cells) was “low permeable”, the “efflux transporter substrate finding” value (Caco-2 cells) was “substrates of efflux transporters” and the virus reduction [3] was “about 1 log”. The “Ct-value (threshold cycle) of HCV-RNA” value [3] was “around 28”, the “antiviral profile (reduction of viral titer)” value [3] was “comparable antiviral profile” and the “amount of viral RNA (viral load)” value [3] was 6.5×10^5 IU/ml. For the same molecule, the “reduction of viral RNA” value [3] was “about 95%”.
For CCCOC(=O)[C@H](C)N[P@](=O)(OC[C@H]1O[C@@H](n2ccc(=O)[nH]c2=O)[C@](C)(F)[C@@H]1O)Oc1ccccc1 [n-Propyl-Sofosbuvir, (S)-n-propyl 2-(((S)-(((2R,3R,4R,5R)-5-(2,4-dioxo-3,4-dihydropyrimidin-1(2H)-yl)-4-fluoro-3-hydroxy-4-methyltetrahydrofuran-2-yl)methoxy)(phenoxy)phosphoryl)-amino)propanoate], the Papp A→B at 1 h, 10 μM [2] was 2 ×10⁻⁶ cm/s, the efflux ratio at 1 h, 10 μM [2] was 4.4 and the “permeability classification in the A>B direction” value (Caco-2 cells) was “low permeable”. For the same molecule, the “efflux transporter substrate finding” value (Caco-2 cells) was “substrates of efflux transporters”, the virus reduction [3] was “about 1 log” and the “Ct-value (threshold cycle) of HCV-RNA” value [3] was “around 28”. The “antiviral profile (reduction of viral titer)” value [3] was “comparable antiviral profile”, the “amount of viral RNA (viral load)” value [3] was 6.5×10^5 IU/ml and the “reduction of viral RNA” value [3] was “about 95%”.
In the case of CC[C@]1(O)C[C@@H]2CN(CCc3c([nH]c4ccccc34)[C@@](C(=O)OC)(c3cc4c(cc3OC)N(C)[C@H]3[C@@](O)(C(=O)OC)[C@H](OC(C)=O)[C@]5(CC)C=CCN6CC[C@]43[C@@H]65)C2)C1 [vinblastine], the Papp A→B at 1 h, 10 μM [2] is reported as 5 ×10⁻⁶ cm/s.

Reference: US20190185507A1 (priority 2016, published 2019)
